Common to all, as to assay type: functional
One assay relates to Candida albicans. As to the kind of experiment: Antifungal activity against Candida albicans MTCC 227 after 48 hr by broth microdilution method. To be noted: MTCC 227, 48 h. (In general: Dilution methods test growth across graded concentrations, often in twofold steps.)
The test system of another assay is Aspergillus fumigatus. As to the kind of experiment: Antifungal activity against Aspergillus fumigatus MTCC 3008 after 48 hr by broth microdilution method. The conditions noted are these: MTCC 3008, 48 h.
The subject of the next assay is Vibrio cholerae. As to the kind of experiment: Antibacterial activity against Vibrio cholerae MTCC 3906 after 24 hr by broth microdilution method. The conditions noted are these: MTCC 3906, 24 h.
The next assay deals with Salmonella typhi. Description: Antibacterial activity against Salmonella enterica subsp. enterica serovar Typhi MTCC 98 after 24 hr by broth microdilution method. To be noted: MTCC 98, 24 h.
For a further assay, the system named is Escherichia coli. As to the kind of experiment: Antibacterial activity against Escherichia coli MTCC 443 after 24 hr by broth microdilution method. To be noted: MTCC 443, 24 h.
In another assay the test system is Streptococcus pneumoniae. Description: Antibacterial activity against Streptococcus pneumoniae MTCC 1936 after 24 hr by broth microdilution method. To be noted: MTCC 1936, 24 h.
A further assay relates to Clostridium tetani. Description: Antibacterial activity against Clostridium tetani MTCC 449 after 24 hr by broth microdilution method. To be noted: MTCC 449, 24 h.
Another assay relates to Bacillus subtilis. Description: Antibacterial activity against Bacillus subtilis MTCC 441 after 24 hr by broth microdilution method. The conditions noted are these: MTCC 441, 24 h.

SMILES strings stand for the structures. In brackets after ≈: the same amount, converted by molar mass. Some results are limits rather than exact numbers.

The MIC is the lowest concentration that inhibits growth of the organism. The low end stands for inhibition by little substance, the high end for a need for much substance. Consider `Cc1ccc(Sc2nc(N)c(C#N)c(-c3cc4cc(C)ccc4nc3Cl)c2C#N)cc1`, for which the MIC against Candida albicans came to 250 µg/mL (≈ 566 µM); against Aspergillus fumigatus, 500 µg/mL (≈ 1130 µM); with Vibrio cholerae, 500 µg/mL (≈ 1130 µM); with Salmonella typhi, 200 µg/mL (≈ 453 µM); with Escherichia coli, 250 µg/mL (≈ 566 µM); with Streptococcus pneumoniae, 100 µg/mL (≈ 226 µM). Moreover, the results for the minimum inhibitory concentration (MIC) in the assay on Clostridium tetani and in the assay with Bacillus subtilis were 500 µg/mL (≈ 1130 µM) and 100 µg/mL (≈ 226 µM), respectively.
With `Cc1ccc(Sc2nc(N)c(C#N)c(-c3cc4ccccc4nc3Cl)c2C#N)cc1`, the MIC was greater than 1000 µg/mL against Candida albicans; greater than 1000 µg/mL in the assay with Aspergillus fumigatus; 62.5 µg/mL (≈ 146 µM) against Vibrio cholerae; 100 µg/mL (≈ 234 µM) in the assay with Salmonella typhi; 100 µg/mL (≈ 234 µM) with Escherichia coli; 200 µg/mL (≈ 467 µM) against Streptococcus pneumoniae. For the same compound, the MIC against Clostridium tetani and in the assay on Bacillus subtilis was 250 µg/mL (≈ 584 µM) throughout.
With `Cc1ccc2cc(-c3c(C#N)c(N)nc(Sc4ccc(Cl)cc4)c3C#N)c(Cl)nc2c1`, the MIC in the assay with Candida albicans was greater than 1000 µg/mL; against Aspergillus fumigatus it was greater than 1000 µg/mL; against Vibrio cholerae, 500 µg/mL (≈ 1080 µM); against Salmonella typhi it was 500 µg/mL (≈ 1080 µM); with Escherichia coli, 500 µg/mL (≈ 1080 µM); against Streptococcus pneumoniae it was 250 µg/mL (≈ 541 µM). Further, the minimal inhibitory concentration (MIC) against Clostridium tetani and against Bacillus subtilis was 250 µg/mL (≈ 541 µM) throughout.
Regarding `N#Cc1c(N)nc(Sc2ccccc2)c(C#N)c1-c1cc2ccccc2nc1Cl`, the MIC came out at 500 µg/mL (≈ 1210 µM) with Candida albicans; 500 µg/mL (≈ 1210 µM) against Aspergillus fumigatus; 200 µg/mL (≈ 483 µM) in the assay on Vibrio cholerae; 200 µg/mL (≈ 483 µM) with Salmonella typhi; 200 µg/mL (≈ 483 µM) in the assay with Escherichia coli; 250 µg/mL (≈ 604 µM) against Streptococcus pneumoniae. Also, the MIC stood at 500 µg/mL (≈ 1210 µM) in the assay on Clostridium tetani and 250 µg/mL (≈ 604 µM) with Bacillus subtilis.
Regarding `Cc1ccc2nc(Cl)c(-c3c(C#N)c(N)nc(Sc4ccc(Cl)cc4)c3C#N)cc2c1`, the MIC against Candida albicans was 500 µg/mL (≈ 1080 µM); against Aspergillus fumigatus it was 500 µg/mL (≈ 1080 µM); with Vibrio cholerae, 200 µg/mL (≈ 433 µM); in the assay with Salmonella typhi it was 100 µg/mL (≈ 216 µM); with Escherichia coli, 62.5 µg/mL (≈ 135 µM); in the assay with Streptococcus pneumoniae, 200 µg/mL (≈ 433 µM). The MIC against Clostridium tetani came to 250 µg/mL (≈ 541 µM); in the assay on Bacillus subtilis, 200 µg/mL (≈ 433 µM).
In the case of `Cc1ccc2nc(Cl)c(-c3c(C#N)c(N)nc(Sc4ccccc4)c3C#N)cc2c1`, the MIC in the assay with Candida albicans was greater than 1000 µg/mL; with Aspergillus fumigatus it was greater than 1000 µg/mL; in the assay with Vibrio cholerae, 250 µg/mL (≈ 584 µM); with Salmonella typhi, 200 µg/mL (≈ 467 µM); against Escherichia coli, 200 µg/mL (≈ 467 µM); against Streptococcus pneumoniae, 250 µg/mL (≈ 584 µM). Besides, the MIC with Clostridium tetani and with Bacillus subtilis was 500 µg/mL (≈ 1170 µM) in each case.
In the case of `CCn1cc(C(=O)O)c(=O)c2cc(F)c(N3CCNCC3)cc21` [NORFLOXACIN], the MIC against Vibrio cholerae came to 10 µg/mL (≈ 31.3 µM); in the assay on Salmonella typhi, 10 µg/mL (≈ 31.3 µM); in the assay with Escherichia coli, 10 µg/mL (≈ 31.3 µM); in the assay on Streptococcus pneumoniae, 10 µg/mL (≈ 31.3 µM); against Clostridium tetani, 50 µg/mL (≈ 157 µM); in the assay on Bacillus subtilis, 100 µg/mL (≈ 313 µM).
Consider `Cc1ccc(Sc2nc(N)c(C#N)c(-c3cc4ccc(C)cc4nc3Cl)c2C#N)cc1`, for which the minimal inhibitory concentration (MIC) is greater than 1000 µg/mL against Candida albicans; greater than 1000 µg/mL against Aspergillus fumigatus; 200 µg/mL (≈ 453 µM) in the assay with Vibrio cholerae; 250 µg/mL (≈ 566 µM) in the assay with Salmonella typhi; 200 µg/mL (≈ 453 µM) against Escherichia coli; 200 µg/mL (≈ 453 µM) in the assay with Streptococcus pneumoniae. In addition, the minimum inhibitory concentration (MIC) in the assay on Clostridium tetani and against Bacillus subtilis was 200 µg/mL (≈ 453 µM) in each case.
Consider `COc1ccc2nc(Cl)c(-c3c(C#N)c(N)nc(Sc4ccccc4)c3C#N)cc2c1`, for which the MIC against Candida albicans was determined as 1000 µg/mL (≈ 2250 µM); against Aspergillus fumigatus it was 1000 µg/mL (≈ 2250 µM); with Vibrio cholerae, 500 µg/mL (≈ 1130 µM); against Salmonella typhi, 500 µg/mL (≈ 1130 µM); in the assay with Escherichia coli it was 500 µg/mL (≈ 1130 µM); in the assay with Streptococcus pneumoniae, 250 µg/mL (≈ 563 µM). Further, the figures for the MIC in the assay on Clostridium tetani and in the assay with Bacillus subtilis were 200 µg/mL (≈ 451 µM) and 250 µg/mL (≈ 563 µM), respectively.
Consider `CC1(C)S[C@@H]2[C@H](NC(=O)[C@H](N)c3ccccc3)C(=O)N2[C@H]1C(=O)O` [AMPICILLIN], for which the MIC against Vibrio cholerae worked out at 100 µg/mL (≈ 286 µM); against Salmonella typhi it was 100 µg/mL (≈ 286 µM); against Escherichia coli, 100 µg/mL (≈ 286 µM); in the assay with Streptococcus pneumoniae, 100 µg/mL (≈ 286 µM); in the assay on Clostridium tetani, 250 µg/mL (≈ 715 µM); against Bacillus subtilis it was 250 µg/mL (≈ 715 µM).
Turning to `N#Cc1c(N)nc(Sc2ccc(Cl)cc2)c(C#N)c1-c1cc2ccccc2nc1Cl`, the MIC amounted to 1000 µg/mL (≈ 2230 µM) against Candida albicans; 1000 µg/mL (≈ 2230 µM) against Aspergillus fumigatus; 250 µg/mL (≈ 558 µM) against Vibrio cholerae; 150 µg/mL (≈ 335 µM) with Salmonella typhi; 100 µg/mL (≈ 223 µM) with Escherichia coli; 250 µg/mL (≈ 558 µM) in the assay on Streptococcus pneumoniae. In addition, the MIC in the assay on Clostridium tetani and in the assay with Bacillus subtilis was 250 µg/mL (≈ 558 µM) in each case.
As to `N#Cc1c(N)nc(Sc2ccccc2)c(C#N)c1-c1cc2cc(Cl)ccc2nc1Cl`, the MIC came to 250 µg/mL (≈ 558 µM) in the assay on Candida albicans; 250 µg/mL (≈ 558 µM) against Aspergillus fumigatus; 200 µg/mL (≈ 446 µM) with Vibrio cholerae; 250 µg/mL (≈ 558 µM) in the assay on Salmonella typhi; 200 µg/mL (≈ 446 µM) against Escherichia coli; 200 µg/mL (≈ 446 µM) against Streptococcus pneumoniae. Further, the minimal inhibitory concentration (MIC) worked out at 250 µg/mL (≈ 558 µM) against Clostridium tetani and 100 µg/mL (≈ 223 µM) in the assay on Bacillus subtilis.
For the compound `COc1ccc2nc(Cl)c(-c3c(C#N)c(N)nc(Sc4ccc(Cl)cc4)c3C#N)cc2c1`, the minimal inhibitory concentration (MIC) with Candida albicans is 1000 µg/mL (≈ 2090 µM); in the assay with Aspergillus fumigatus it was greater than 1000 µg/mL; in the assay on Vibrio cholerae it was 200 µg/mL (≈ 418 µM); in the assay with Salmonella typhi, 200 µg/mL (≈ 418 µM); against Escherichia coli, 200 µg/mL (≈ 418 µM); in the assay on Streptococcus pneumoniae, 250 µg/mL (≈ 523 µM). Also, the MIC in the assay on Clostridium tetani turned out to be 200 µg/mL (≈ 418 µM); against Bacillus subtilis it was 250 µg/mL (≈ 523 µM).
With `COc1ccc2nc(Cl)c(-c3c(C#N)c(N)nc(Sc4ccc(C)cc4)c3C#N)cc2c1`, the MIC in the assay with Candida albicans is greater than 1000 µg/mL; against Aspergillus fumigatus, greater than 1000 µg/mL; in the assay on Vibrio cholerae, 500 µg/mL (≈ 1090 µM); in the assay with Salmonella typhi it was 500 µg/mL (≈ 1090 µM); with Escherichia coli it was 500 µg/mL (≈ 1090 µM); with Streptococcus pneumoniae, 500 µg/mL (≈ 1090 µM). The MIC in the assay with Clostridium tetani and in the assay with Bacillus subtilis was 500 µg/mL (≈ 1090 µM) throughout.
For `Cc1ccc2cc(-c3c(C#N)c(N)nc(Sc4ccccc4)c3C#N)c(Cl)nc2c1`, the MIC in the assay on Candida albicans came to 1000 µg/mL (≈ 2340 µM); against Aspergillus fumigatus, 1000 µg/mL (≈ 2340 µM); in the assay with Vibrio cholerae, 250 µg/mL (≈ 584 µM); in the assay with Salmonella typhi it was 200 µg/mL (≈ 467 µM); in the assay on Escherichia coli, 100 µg/mL (≈ 234 µM); in the assay with Streptococcus pneumoniae, 100 µg/mL (≈ 234 µM). In addition, the minimal inhibitory concentration (MIC) was 200 µg/mL (≈ 467 µM) against Clostridium tetani and 100 µg/mL (≈ 234 µM) in the assay on Bacillus subtilis.
Consider `Cc1ccc(Sc2nc(N)c(C#N)c(-c3cc4cc(Cl)ccc4nc3Cl)c2C#N)cc1`, for which the MIC is 250 µg/mL (≈ 541 µM) with Candida albicans; 500 µg/mL (≈ 1080 µM) against Aspergillus fumigatus; 200 µg/mL (≈ 433 µM) against Vibrio cholerae; 200 µg/mL (≈ 433 µM) against Salmonella typhi; 200 µg/mL (≈ 433 µM) against Escherichia coli; 250 µg/mL (≈ 541 µM) in the assay on Streptococcus pneumoniae. For the same compound, the MIC in the assay with Clostridium tetani and in the assay with Bacillus subtilis was 200 µg/mL (≈ 433 µM) in each case.
For the compound `COC1=CC(=O)C[C@@H](C)[C@]12Oc1c(Cl)c(OC)cc(OC)c1C2=O` [GRISEOFULVIN], the minimum inhibitory concentration (MIC) with Candida albicans came out at 100 µg/mL (≈ 283 µM); against Aspergillus fumigatus it was 500 µg/mL (≈ 1420 µM).
On to `N#Cc1c(N)nc(Sc2ccc(Cl)cc2)c(C#N)c1-c1cc2cc(Cl)ccc2nc1Cl`, for which the MIC amounted to 200 µg/mL (≈ 414 µM) against Candida albicans; 500 µg/mL (≈ 1040 µM) in the assay with Aspergillus fumigatus; 500 µg/mL (≈ 1040 µM) against Vibrio cholerae; 250 µg/mL (≈ 518 µM) against Salmonella typhi; 250 µg/mL (≈ 518 µM) in the assay with Escherichia coli; 500 µg/mL (≈ 1040 µM) with Streptococcus pneumoniae. For the same compound, the MIC against Clostridium tetani worked out at 500 µg/mL (≈ 1040 µM); in the assay with Bacillus subtilis, 250 µg/mL (≈ 518 µM).

The values above are taken from ChEMBL document CHEMBL3046743, “Synthesis and in vitro antimicrobial evaluation of penta-substituted pyridine derivatives bearing the quinoline nucleus” (2012).
